Assay results taken from patent US20260125762A1, “METHODS OF IDENTIFYING AND TREATING TUMORS WITH SIGMA1 INHIBITORS” (Drexel University, priority 2016, published 2026).

Tests used:
[1] = system: COLO205; assay: NCI-60 single-dose in vitro growth inhibition assay; assay type: cell-based, human; settings: single-dose 10 μM
Procedure: (§1) As in FIG. 1, Compound CT-110 was used in single-dose (10 μM) in vitro growth inhibition assays of the NCI-60 cell lines. The NCI-60 panel contains 60 diverse human cancer cell lines screened with more than 100,000 chemical compounds for anticancer activity since 1990 by the Developmental Therapeutics Program (DTP). See Huang, et al., 2005, Pharmacogenomics J. 5:381-99; Staunton, et al., 2001, PNAS USA 98(19):10787-92; Covell, et al., 2007, Mol. Cancer Ther. 6:2261-70; Potti, et al., 2006. Nat. Med. 12(11):1294-300. Standardization of NCI-60 inhibition data into Z-scores. NCI-60 cell line percent growth data obtained after culture in the presence of CT-110 were converted to percent growth inhibition by the formula 100−% Growth. A Z-score for each cell line data point was calculated using the formula (X-value minus 60-element array average)/(Array standard deviation). Z-scores are associated with a normal distribution and are used (1) to indicate where a score lies relative to the entire data set, above or below the mean, and (2) to compare scores derived from different normal distributions. Narrowing the 25K+ CellMiner genes to a CT-110 inhibition signature set of 6 genes. Pattern comparison searching yielded a list of 1,080 genes having significant Pearson correlations (r>0.334 or r<−0.334) to the NCI-60 Z-score profile of CT-110. Cross-referencing this profile-matching list with 1,106 cancer-relevant genes comprising a 755-gene PanCancer and Custom Codeset, supplemented with 545 “Cancer Driver” genes (Integrative OncoGenomics, BROAD Institute TARGET Database v3, Targeted Therapies for Cancer), reduced the number of genes to fifty (50). NCI-60-based Z-score profiles for these 50 genes were obtained using the CellMiner “Cell Line Signature Analysis” query. […] Z-scores, reflective of gene expression level and directionality, were used to identify forty-five (45) genes out of the […] (Table 3) that had expression either up or down in at least 4 out of the 5 CT-110-sensitive or resistant cell lines (assessed independently). […] These six genes (CDH1, CREB3L4, PIK3C2B, RNF43, SREBF1 and ZMYM2) are the end result of the rational approach to establish a focused set of genes, with expression profiles reflecting the growth inhibition profile of CT-110 in sensitive and resistant cancer cell lines.

[2] = system: HT29; assay: as above; assay type: cell-based, human; settings: single-dose 10 μM
Procedure: as §1

[3] = system: MCF7; assay: as above; assay type: cell-based, human; settings: single-dose 10 μM
Procedure: as §1

[4] = system: OVCAR-3; assay: as above; assay type: cell-based, human; settings: single-dose 10 μM
Procedure: as §1

[5] = system: OVCAR-8; assay: as above; assay type: cell-based, human; settings: single-dose 10 μM
Procedure: as §1

[6] = system: RPMI-8226; assay: as above; assay type: cell-based, human; settings: single-dose 10 μM
Procedure: as §1

[7] = system: SK-MEL-28; assay: as above; assay type: cell-based, human; settings: single-dose 10 μM
Procedure: as §1

[8] = system: SK-MEL-2; assay: as above; assay type: cell-based, human; settings: single-dose 10 μM
Procedure: as §1

[9] = system: SK-MEL-5; assay: as above; assay type: cell-based, human; settings: single-dose 10 μM
Procedure: as §1

[10] = system: UACC-257; assay: as above; assay type: cell-based, human; settings: single-dose 10 μM
Procedure: as §1

[11] = system: BT474; assay: BT474 orthotopic xenograft tumor growth; assay type: in vivo, female SCID Beige mice; settings: BT474 (predicted sensitive) in mammary fat pad; 10 mg/kg ip q2d; treatment stopped Day 30
Procedure: (§2) BT474 cells (ATCC, Manassas, VA, cat #HTB-20) were implanted orthotopically (2×10^6 per mouse) as a mixture in Matrigel (50%) into the mammary fat pad of female SCID Beige mice (10 mice per treatment arm) and grown to a volume of about 125 mm^3 prior to compound administration. CT-110 was dosed alone at 10 mg/kg ip, once every two days (ip, q2d) in 1% (weight/volume) sodium carboxymethyl cellulose/0.5% (volume/volume) Tween-80. A control group received vehicle alone (1% (weight/volume) sodium carboxymethyl cellulose/0.5% (volume/volume) Tween-80ip q2d). All drug treatment was stopped on Day 30. The major endpoint is to assess whether the tumor growth can be delayed or mice can be cured. Tumor sizes are measured twice weekly in two dimensions using a caliper, and the volume is expressed in mm^3 using the formula: V=0.5 a×b^2 where a and b are the long and short diameters of the tumor, respectively. The tumor sizes are then used for the calculations of both T-C and T/C values. T-C is calculated with T as the median time (in days) required for the treatment group tumors to reach a predetermined size (e.g., 1,000 mm^3), and C is the median time (in days) for the control group tumors to reach the same size. The T/C value (in percent) is an indication of antitumor effectiveness, T and C are the mean volume of the treated and control groups, respectively, on a given day.

[12] = system: MDAMB231; assay: MDAMB231 orthotopic xenograft tumor growth; assay type: in vivo, female SCID Beige mice; settings: MDAMB231 (predicted resistant) in mammary fat pad; 10 mg/kg ip q2d; treatment stopped Day 20
Procedure: as §2, with “MDAMB231” for “BT474”, “#HTB-26)” for “#HTB-20)”, “75” for “125”, “20.” for “30.”

N=C(NCCCOc1ccc(F)cc1)Nc1ccc(Cl)cc1 [CT-110, 1-(3-(4-fluorophenoxy)propyl)-3-(4-chlorophenyl)guanidine]
sensitivity to Sigma1 inhibition by CT-110 (growth inhibition rank in NCI-60) [1]: most sensitive
sensitivity to Sigma1 inhibition by CT-110 (growth inhibition rank in NCI-60) [2]: most sensitive
sensitivity to Sigma1 inhibition by CT-110 (growth inhibition rank in NCI-60) [3]: most sensitive
sensitivity to Sigma1 inhibition by CT-110 (growth inhibition rank in NCI-60) [4]: most resistant
sensitivity to Sigma1 inhibition by CT-110 (growth inhibition rank in NCI-60) [5]: most resistant
sensitivity to Sigma1 inhibition by CT-110 (growth inhibition rank in NCI-60) [6]: most resistant
sensitivity to Sigma1 inhibition by CT-110 (growth inhibition rank in NCI-60) [7]: most resistant
sensitivity to Sigma1 inhibition by CT-110 (growth inhibition rank in NCI-60) [8]: most resistant
sensitivity to Sigma1 inhibition by CT-110 (growth inhibition rank in NCI-60) [9]: most sensitive
sensitivity to Sigma1 inhibition by CT-110 (growth inhibition rank in NCI-60) [10]: most sensitive
tumor growth T/C [11]: 70%
tumor growth T/C [12]: < 10%
